Test results: patent publication US4634706A, “Griseolic acid derivatives, and their use as enzyme inhibitors” (Sankyo Company Limited, priority 1983, dated 1987)

Tests used:
[1] = test system: erythrocytes; test: Effect on recovery of erythrocyte flexibility reduced by acidosis; type: in vivo, rat; conditions: 50 mg/kg orally, blood pH 5.1, P < 0.05
Method: Mature male rats were employed in this experiment in groups of five for each test. The compound under test was suspended in an aqueous solution of carboxymethylcellulose and administered orally. Two hours after administration, the rats were anaesthetized with pentobarbital and a 5 ml blood sample was taken from the heart. Its pH was adjusted to 5.1 and the sample was allowed to stand. The fluidity of the erythrocytes was tested by a slightly modified version of the method reported in the Journal of Clinical Pathology, 29, 855-858 (1976). Control animals were treated similarly, except that the carboxymethylcellulose solution contained no active compound. The results are reported as the mean values for each group plus or minus the statistical error and the statistical significance was calculated by comparison with the control group.

[2] = test system: cerebral blood flow; test: Improving cerebral blood flow; type: in vivo, rabbit; conditions: for Duration (T 1/2) / Increase in cerebral blood flow (Vp), ratio to papaverine 1 mg/kg: 10 mg/kg
Text: The "duration (T1/2)" is the time in minutes required for the increase in cerebral blood flow to reduce by one half.

[3] = molecular target: cAMP PDE; test: Phosphodiesterase (PDE) inhibitory activity, cAMP substrate; type: biochemical, rat; conditions: for IC50: 0.14 μM 14C-labeled cAMP, pH 8.0, 30° C., 20 minutes, crude enzyme from rat brains, read-out: I50 cAMP PDE
Method: (§1) The test was carried out following essentially the method of A. L. Pichard and Y. U. Chung [Journal of Biological Chemistry, 251, 5726-5737 (1976)]. A crude enzymatic solution derived from rat brains was used as the source of cAMP PDE.
(§2) ^14 C-labeled cAMP was used as the substrate. It was employed in a 0.2M Tris-hydrochloric acid buffer solution (pH 8.0) in an amount sufficient to provide a final concentration of 0.14 μM. "Tris" is tris(hydroxymethyl)aminomethane. The substrate solution was mixed with an appropriate amount of the compound under test dissolved in 2-5 μl of dimethyl sulfoxide and with 20 μl of a snake venom solution and 40 μl of the crude enzyme solution. Sufficient Tris-hydrochloric acid buffer was added to make a total volume of 100 μl. The mixture was allowed to react at 30° C. for 20 minutes. At the end of this time, the reaction mixture was treated with an Amberlite (trade mark) IRP-58 resin and the level of residual adenosine radioactivity in the product was determined.

[4] = molecular target: cGMP PDE; test: Phosphodiesterase (PDE) inhibitory activity, cGMP substrate; type: biochemical; conditions: cGMP as substrate, crude enzyme from rat brains; read-out: I50 cGMP PDE
Method: as §1, §2
The experiment was repeated, except that cyclic guanosine monophosphate (cGMP) was employed as the substrate instead of cAMP. The I50 value against cGMP PDE was also calculated.

[5] = test system: blood viscosity; test: Improvement in blood viscosity; type: in vivo, male Wistar rats; parameters: key to blood viscosity, shear rates without significant rise after ligation: for each shear rate where no significant rise in […] was noted (P<0.05) between the pre-ligation and post-ligation values there is printed a single plus sign (+); ++++: no significant difference in viscosity between the pre-ligation and post-ligation values at any of the four shear rates; conditions: for minimal effective dose: Rattus norvegicus, read-out: dose at which significant improvement (i.e. stabilisation) in blood viscosity was achieved
Method: The test animals were male Wistar rats; they were employed in groups of five for each test. The rats were anaesthetized with pentobartibal and simultaneously the test compound was administered orally at the dose specified in Table 5 in a carboxymethyl cellulose suspension. Promptly, an incision was made in the neck and a 0.5 ml blood sample was collected from the jugular vein. The viscosity of this sample was determined by means of a rotational viscometer.
Thirty minutes after oral administration, the common carotid artery was ligated bilaterally. One hour thereafter (i.e. 90 minutes after oral administration), a further 0.5 ml blood sample was collected from the jugular vein and its viscosity was determined in the same manner.
The mean blood viscosity of each test animal and its standard deviation were calculated for each of the four shear rates (37.5, 75, 150 and 375 s^-1) of the rotational viscometer. The pre-ligation and post-ligationvalues of each group (i.e. the change over a period of 60 minutes) were analysed by the statistical t-test. The results are reported in Table 5 as follows: for each shear rate where no significant rise in […] was noted (P<0.05) between the pre-ligation and post-ligation values there is printed a single plus sign (+). Thus, for example, if there was no significant difference in viscosity between the pre-ligation and post-ligation values at any of the four shear rates, the results will be ++++.

[6] = test system: rats; test: Toxicity (mortality of male Fisher rats, daily doses for four days); type: in vivo, male rats of the Fisher strain; conditions: 100 mg/kg daily
Method: The compounds under test were griseolic acid and Compounds No. 26 and 51 from the list of compounds of the invention set out hereinabove. The test animals were male rats of the Fisher strain. The rats were employed in groups of five for each test.
The compounds under test were administered at single daily doses of 50 mg/kg or 100 mg/kg throughout the four days of the test.

[7] = test system: righting reflex and spontaneous locomotive activity; test: Brain concussive test; type: in vivo; conditions: 10 mg/kg intraperitoneally, 17 mice
Method: The test compound, suspended in an aqueous solution of carboxymethylcellulose, was administered intraperitoneally to mice. After 30 minutes, a 16 g weight was dropped from a height of 50 cm onto the head of each mouse, and the time was measured for each mouse to recover its righting reflex and spontaneous locomotive activity.
A similar experiment was carried out as a control, using the carboxymethylcellulose solution without any active compound.
The results are reported in Table 6 as the mean time (in seconds) plus or minus the statistical error. There were 20 mice in the control group and 17 mice in the group to which the test compound was administered.

[8] = test system: brain of rats with cerebral ischaemia; test: Effect on sugar and high energy phosphate metabolism in the brain of rats with cerebral ischaemia; type: in vivo, rat; conditions: 1 mg/kg or 10 mg/kg intraperitoneal
Method: Cerebral ischaemia was induced in rats and the sugar and high energy phosphate metabolism in the brain was investigated.
Both carotid arteries of the test rats were ligated and, at the same time, the compound under test was administered by intraperitoneal injection. The amounts of sugars and metabolic products thereof (glucose and lactic acid) and high energy phosphate (ATP-adenosine triphosphate) in the brain were determined by the method of Lowry and Passonneau (A flexible system of enzymatic analysis, Academic Press, New York, 1972). When Compound No. 131 was administered at levels of 1 mg/kg or 10 mg/kg, there was observed an increase in glucose levels, a decrease in lactic acid levels and an increase in ATP levels in the rats with cerebral ischaemia.

[9] = test system: anoxia-induced cerebral dysfunction; test: Promotion of recovery from anoxia-induced cerebral dysfunction (EEG recovery); type: in vivo, rat; conditions: breathing terminated 120 seconds
Method: In this experiment, the breathing of a rat was terminated for sufficient time for its EEG (electroencephalograph) trace to become flat and the time required for the EEG to show further activity after breathing had restarted was determined.
The rat was immobilized by the administration of pancuronium bromide, and its spontaneous EEG was recorded. After the rat had been roused from anaesthesia, the compound under test suspended in an aqueous solution of carboxymethylcellulose was administered intraperitoneally to the rat. Throughout the experiment, the rat was caused to breathe artificially; 30 minutes after administration of the test compound, artificial breathing was terminated for 120 seconds. After breathing again commenced, the time required for the EEG to recover (the recovery time) was determined.
A control experiment was carried out in which a carboxymethylcellulose suspension alone was administered with no active compound.
The recovery time is reported in the Table in seconds as the mean of the recovery times of all of the animals in the relevant test group plus or minus the statistical error.

CC(=O)OC1C2OC(C(=O)OC(c3ccccc3)c3ccccc3)(C(OC(C)=O)C(=O)OC(c3ccccc3)c3ccccc3)C=C2OC1n1cnc2c(=O)[nH]cnc21 (stereo not shown) [Compound No. 71, dibenzhydryl O^2',O^7' -diacetyl-6-desamino-6-hydroxygriseolate]
Total number of passing erythrocytes × 10^9 [1]: 3.00 ± 0.16 × 10^9 | Duration (T 1/2) [2]: > 1 h | Increase in cerebral blood flow (Vp), ratio to papaverine 1 mg/kg [2]: 3.0

Nc1ncnc2c1ncn2C1OC2=CC(CC(=O)O)(C(=O)O)OC2[C@H]1O (stereo partly shown) [Compound No. 133, 7'-deoxygriseolic acid]
IC50 [3]: 140 nM | Duration (T 1/2) [2]: > 1 h | Increase in cerebral blood flow (Vp), ratio to papaverine 1 mg/kg [2]: 10 | IC50 [4]: 1100 nM

CCC(=O)Nc1ncnc2c1ncn2C1OC2=CC(C(=O)OC(c3ccccc3)c3ccccc3)(C(OC(=O)CC)C(=O)OC(c3ccccc3)c3ccccc3)OC2C1OC(=O)CC (stereo not shown) [Compound No. 10, dibenzhydryl N^6,O^2',O^7' -tripropionylgriseolate]
blood viscosity, shear rates without significant rise after ligation ([5]; 30 mg/kg oral): ++++ | blood viscosity, shear rates without significant rise after ligation ([5]; 50 mg/kg oral): ++++ | minimal effective dose ([5]; oral): ≥ 50 mg/kg

O=C(O)[C@H](O)C1(C(=O)O)C=C2OC(n3cnc4c(S)ncnc43)[C@H](O)C2O1 (stereo partly shown) [Compound No. 54, 6-desamino-6-mercaptogriseolic acid]
minimal effective dose ([5]; oral): ≥ 50 mg/kg | IC50 [3]: 19000 nM | IC50 [4]: 9100 nM

CC(=O)O[C@H](C(=O)O)C1(C(=O)O)C=C2OC(n3cnc4c(N)ncnc43)[C@H](O)C2O1 (stereo partly drawn) [Compound No. 141, 7'(S)-acetoxy-7'-deoxygriseolic acid]
IC50 [3]: 220 nM | Duration (T 1/2) [2]: > 1 h | Increase in cerebral blood flow (Vp), ratio to papaverine 1 mg/kg [2]: 9.2 | IC50 [4]: 1050 nM

O=C(O)CC1(C(=O)O)C=C2OC(n3cnc4c(=O)[nH]cnc43)C(O)C2O1 (stereo not shown) [Compound No. 138, 6-desamino-7'-deoxy-6-hydroxygriseolic acid]
IC50 [3]: 140 nM | Duration (T 1/2) [2]: > 1 h | Increase in cerebral blood flow (Vp), ratio to papaverine 1 mg/kg [2]: 5.5 | IC50 [4]: 50 nM

Nc1ncnc2c1ncn2C1OC2=CC(C(=O)O)([C@@H](O)C(=O)O)OC2[C@H]1O (stereo partly shown) [Griseolic acid, griseolic acid]
ability to inhibit cAMP phosphodiesterase ([3]; in words): has the ability to inhibit the activity of cyclic adenosine monophosphate (cAMP) phosphodiesterase (PDE) | mortality after day 3 ([6]; after day 3): 3/5 | mortality for the first two days ([6]; first two days): 0/5 | mortality at the end of the test ([6]; four days, male Fisher rats): 3/5

Nc1ncnc2c1ncn2C1OC23OC(C(=O)OC(c4ccccc4)c4ccccc4)C(C(=O)OC(c4ccccc4)c4ccccc4)(OC2C1O)C3Br (stereo not drawn) [Compound No. 202, dibenzhydryl 4',7'-anhydro-5'α-bromo-4'α-hydroxygriseolate]
blood viscosity, shear rates without significant rise after ligation ([5]; 10 mg/kg oral): + | dose levels at which significant improvement (i.e. stabilisation) in blood viscosity was achieved ([5]; oral, in words): all dose levels | Recovery time, righting reflex [7]: 20.9 ± 2.9 s | Recovery time, spontaneous locomotive activity ([7]; P < 0.05): 72.8 ± 15.7 s

COc1ccc(Cc2nccc3cc(OC)c(OC)cc23)cc1OC [Papaverine, papaverine, reference compound]
Change in blood pressure (pascals) ([2]; 1 mg/kg): -1040 pascals | Change in blood pressure mm Hg ([2]; 1 mg/kg): -7.8 mm Hg

O=C(Nc1ncnc2c1ncn2C1OC2=CC(C(=O)O)([C@@H](OC(=O)c3ccccc3)C(=O)O)OC2[C@H]1OC(=O)c1ccccc1)c1ccccc1 (stereo partly shown) [Compound No. 131, N^6,O^2',O^7' -tribenzoylgriseolic acid]
blood viscosity, shear rates without significant rise after ligation ([5]; 30 mg/kg oral): + | blood viscosity, shear rates without significant rise after ligation ([5]; 100 mg/kg oral): ++++ | minimal effective dose ([5]; oral): ≥ 30 mg/kg | ATP levels in brain [8]: increase | glucose levels in brain [8]: increase | lactic acid levels in brain [8]: decrease | Recovery time ([9]; 10 mg/kg intraperitoneally, n=8): 14.5 ± 1.2 s | Recovery time ([9]; 30 mg/kg intraperitoneally, n=8, P < 0.05): 13.8 ± 1.3 s | Total number of passing erythrocytes × 10^9 [1]: 3.30 ± 0.28 × 10^9
